In BindingDB's records for doi:10.7270/Q2X065GM (Sanford-Burnham Center for Chemical Genomics, 2008):

Biological target: T1, Bcl-2-related protein A1 (Mus musculus, UniProt Q07440)
T1 sequence (Q07440 whole entry): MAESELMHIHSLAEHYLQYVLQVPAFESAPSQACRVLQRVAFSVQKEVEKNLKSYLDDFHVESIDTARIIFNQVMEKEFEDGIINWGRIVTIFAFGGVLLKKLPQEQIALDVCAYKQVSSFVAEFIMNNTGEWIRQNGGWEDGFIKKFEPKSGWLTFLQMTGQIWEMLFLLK
Assay: Bfl-1 binding inhibitors, SAR follow-up, biochemical, fluorescence polarization (AID 1070)

## COCC=Nc1c(Cl)c(O)n(-c2ccc(Cl)c(Cl)c2)c1O [3-chloranyl-1-(3,4-dichlorophenyl)-4-(2-methoxyethylamino)pyrrole-2,5-dione]
  IC50: 12.6 µM

## Cc1ccc(N=C2C(=O)N(c3ccc(C)cc3)C(=O)C2Cl)cc1 (configuration not stated) [3-chloranyl-1-(4-methylphenyl)-4-[(4-methylphenyl)amino]pyrrole-2,5-dione]
  IC50: 1.7 µM
